The source of these data is PubChem BioAssay AID328 (DTP/NCI, 2004).

The subject of this assay is BDF1 mice, P388 leukemia ip, median survival T/C. Put plainly: NCI In Vivo Anticancer Drug Screen. Data for tumor model P388 Leukemia (intraperitoneal) in B6D2F1 (BDF1) mice. The conditions noted are these: endpoint: median survival time, higher = longer survival. An outline of the steps: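 Each value expresses how treatment altered survival: treated-mouse outcome over vehicle-mouse outcome, both groups bearing the transplanted tumour.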

Where [1] appears, read: dose: 12.5 mg/kg/injection, schedule: Q01DX009 (ip), vehicle: saline with Tween-80.
The mark [2] stands for this setting: dose: 25.0 mg/kg/injection, schedule: Q01DX009 (ip), vehicle: saline with Tween-80.
[3] abbreviates: dose: 50.0 mg/kg/injection, schedule: Q01DX009 (ip), vehicle: saline with Tween-80.
[4] abbreviates: dose: 100.0 mg/kg/injection, schedule: Q01DX009 (ip), vehicle: saline with Tween-80.
Where [5] appears, read: dose: 200.0 mg/kg/injection, schedule: Q01DX009 (ip), vehicle: saline with Tween-80.
The mark [6] stands for this setting: dose: 6.25 mg/kg/injection, schedule: Q01DX009 (ip), vehicle: saline with Tween-80.
Setting [7] is: dose: 100.0 mg/kg/injection, schedule: Q04DX003 (ip), vehicle: saline with Tween-80.
Where [8] appears, read: dose: 100.0 mg/kg/injection, schedule: Q01DX009 (ip), vehicle: saline.
The mark [9] stands for this setting: dose: 200.0 mg/kg/injection, schedule: Q01DX009 (ip), vehicle: Klucel (hydroxypropylcellulose) (HPC).
The mark [10] stands for this setting: dose: 100.0 mg/kg/injection, schedule: Q04DX003 (ip), vehicle: other.
Where [11] appears, read: dose: 200.0 mg/kg/injection, schedule: Q04DX003 (ip), vehicle: other.
[12] abbreviates: dose: 400.0 mg/kg/injection, schedule: Q04DX003 (ip), vehicle: other.
Where [13] appears, read: dose: 3.12 mg/kg/injection, schedule: Q01DX009 (ip), vehicle: water.
The mark [14] stands for this setting: dose: 6.25 mg/kg/injection, schedule: Q01DX009 (ip), vehicle: water.
Where [15] appears, read: dose: 6.25 mg/kg/injection, schedule: Q04DX003 (ip), vehicle: water.
Setting [16] is: dose: 12.5 mg/kg/injection, schedule: Q01DX009 (ip), vehicle: water.
Where [17] appears, read: dose: 12.5 mg/kg/injection, schedule: Q04DX003 (ip), vehicle: water.
Where [18] appears, read: dose: 25.0 mg/kg/injection, schedule: Q01DX009 (ip), vehicle: water.
[19] abbreviates: dose: 25.0 mg/kg/injection, schedule: Q04DX003 (ip), vehicle: water.
Where [20] appears, read: dose: 50.0 mg/kg/injection, schedule: Q01DX009 (ip), vehicle: water.
The mark [21] stands for this setting: dose: 50.0 mg/kg/injection, schedule: Q04DX003 (ip), vehicle: water.

Where “and” joins values, the source holds several entries; their conditions need not be identical. Equal entries are not always repeated. Toxic doses and inconclusive results are not listed.

`O=[N+]([O-])c1ccc(/C=N\Nc2ccc([N+](=O)[O-])cn2)cc1`: the T/C runs as follows: under setting [1], 110 % of control; under setting [2], 120 % of control; under setting [3], 120 % of control; under setting [4], 90 % of control; (dose: 100.0 mg/kg/injection, schedule: Q04DX003 (ip), vehicle: saline sonified) 100 % of control; under setting [5], 90 % of control. Further, the T/C is 110 % of control (dose: 200.0 mg/kg/injection, schedule: Q04DX003 (ip), vehicle: saline sonified) and 120 % of control (dose: 400.0 mg/kg/injection, schedule: Q04DX003 (ip), vehicle: saline sonified).
In the case of `CC(=O)OC(C)C1C2=C(C(=O)CC1(C)O)C(=O)c1c(ccc(-c3ccc4c(c3O)C(=O)C3=C(C4=O)C(C(C)OC(C)=O)C(C)(O)CC3=O)c1O)C2=O` (stereo not given), the T/C under setting [6] is 122 % of control.
`O=S(=O)(Nc1ccccc1)c1ccc(C2CC3(Cl)C(Cl)=C(Cl)C2(Cl)C3(Cl)Cl)cc1` (stereo not given): the T/C runs as follows: under setting [7], 91 % of control; (dose: 200.0 mg/kg/injection, schedule: Q04DX003 (ip), vehicle: saline with Tween-80) 91 % of control; (dose: 400.0 mg/kg/injection, schedule: Q04DX003 (ip), vehicle: saline with Tween-80) 91 % of control.
On to `Nc1ccc(N=Nc2ccccc2)c(N)c1`, for which the T/C was 88 % of control under setting [2]; 99 % of control under setting [3]; 91 % of control (dose: 100.0 mg/kg/injection, schedule: Q01DX009 (ip), vehicle: Klucel (hydroxypropylcellulose) (HPC)); 113 % of control under setting [4]; 120 % of control under setting [8]; 86 % of control (dose: 100.0 mg/kg/injection, schedule: Q04DX003 (ip), vehicle: saline). The T/C under setting [9] was 100 % of control; the T/C under setting [5] was 115 % of control; the T/C (dose: 200.0 mg/kg/injection, schedule: Q04DX003 (ip), vehicle: saline) was 100 % of control; the T/C (dose: 400.0 mg/kg/injection, schedule: Q01DX009 (ip), vehicle: saline) is 115 % of control; the T/C (dose: 400.0 mg/kg/injection, schedule: Q04DX003 (ip), vehicle: saline) was 104 % of control.
In the case of `Cc1nc2nc(N)[nH]c(=O)c2[nH]1`, the T/C is 112 % of control under setting [2], 124 % of control under setting [3], 104 % of control under setting [4] and 109 % of control under setting [7].
In the case of `COc1cc([N+](=O)[O-])c(C)cc1NCc1ccc(OC)c(OC)c1`, the T/C was 100 % of control (dose: 25.0 mg/kg/injection, schedule: Q01DX009 (ip), vehicle: saline); 99 % of control (dose: 50.0 mg/kg/injection, schedule: Q01DX009 (ip), vehicle: saline); 94 % of control under setting [8].
As for `O=C(C=C(C(F)(F)F)C(F)(F)F)c1ccc(Br)cc1`, the T/C reads like this: (dose: 5.56 mg/kg/injection, schedule: Q01DX009 (ip), vehicle: other) 113 % of control; (dose: 8.33 mg/kg/injection, schedule: Q01DX009 (ip), vehicle: other) 113 % of control; (dose: 12.5 mg/kg/injection, schedule: Q01DX009 (ip), vehicle: other) 109 % of control; (dose: 18.7 mg/kg/injection, schedule: Q01DX009 (ip), vehicle: other) 109 % of control.
As for `O=C(CC(O)(C(F)(F)F)C(F)(F)F)c1ccc(Br)cc1`, the T/C (dose: 100.0 mg/kg/injection, schedule: Q01DX009 (ip), vehicle: other) was 91 % of control; the T/C under setting [10] is 120 % of control; the T/C (dose: 200.0 mg/kg/injection, schedule: Q01DX009 (ip), vehicle: other) was 91 % of control; the T/C under setting [11] was 110 % of control; the T/C (dose: 400.0 mg/kg/injection, schedule: Q01DX009 (ip), vehicle: other) was 91 % of control; the T/C under setting [12] is 120 % of control.
Turning to `CCOC(=O)Nc1nc(Cl)c(Cl)nc1Cl`, the T/C (dose: 0.78 mg/kg/injection, schedule: Q01DX009 (ip), vehicle: water) was 105 % of control; the T/C (dose: 1.56 mg/kg/injection, schedule: Q01DX009 (ip), vehicle: water) is 114 % of control; the T/C under setting [13] was 96 % of control; the T/C under setting [14] is 100 % of control and 110 % of control; the T/C under setting [15] was 90 % of control; the T/C under setting [16] was 91 % of control and 95 % of control. In addition, the T/C is 266 % of control and 102 % of control under setting [17]; 100 % of control under setting [18]; 269 % of control under setting [19]; 87 % of control and 89 % of control under setting [20]; 266 % of control and 116 % of control under setting [21]; 89 % of control and 95 % of control (dose: 100.0 mg/kg/injection, schedule: Q01DX009 (ip), vehicle: water). For the same molecule, the T/C was 105 % of control and 108 % of control (dose: 200.0 mg/kg/injection, schedule: Q01DX009 (ip), vehicle: water); 118 % of control (dose: 400.0 mg/kg/injection, schedule: Q01DX009 (ip), vehicle: water).
On to `CC(C)(C)OC(=O)N/N=C1\CC2CCC1C2` (stereo not given), for which the T/C is 96 % of control under setting [6]; 96 % of control under setting [1]; 95 % of control (dose: 13.75 mg/kg/injection, schedule: Q04DX003 (ip), vehicle: Klucel (hydroxypropylcellulose) (HPC)); 100 % of control under setting [2]; 100 % of control (dose: 27.5 mg/kg/injection, schedule: Q04DX003 (ip), vehicle: Klucel (hydroxypropylcellulose) (HPC)); 105 % of control (dose: 35.0 mg/kg/injection, schedule: Q01DX009 (ip), vehicle: Klucel (hydroxypropylcellulose) (HPC)). For the same molecule, the T/C runs as follows: (dose: 55.0 mg/kg/injection, schedule: Q01DX009 (ip), vehicle: Klucel (hydroxypropylcellulose) (HPC)) 100 % of control; (dose: 55.0 mg/kg/injection, schedule: Q04DX003 (ip), vehicle: Klucel (hydroxypropylcellulose) (HPC)) 100 % of control; (dose: 80.0 mg/kg/injection, schedule: Q04DX003 (ip), vehicle: Klucel (hydroxypropylcellulose) (HPC)) 105 % of control; (dose: 125.0 mg/kg/injection, schedule: Q04DX003 (ip), vehicle: Klucel (hydroxypropylcellulose) (HPC)) 110 % of control.
As to `Clc1ccc(-c2cc[s+]s2)cc1`, the T/C under setting [13] was 94 % of control; the T/C (dose: 3.12 mg/kg/injection, schedule: Q04DX003 (ip), vehicle: water) was 111 % of control; the T/C under setting [14] was 110 % of control; the T/C under setting [15] was 100 % of control; the T/C under setting [16] was 119 % of control; the T/C under setting [17] is 97 % of control. The T/C is 119 % of control under setting [18]; 96 % of control and 117 % of control under setting [19]; 108 % of control under setting [20]; 90 % of control and 100 % of control under setting [21]; 98 % of control (dose: 100.0 mg/kg/injection, schedule: Q04DX003 (ip), vehicle: water).
With `COC(=O)C1=C(C)NC(=O)NC1c1ccc(N(CCCl)CCCl)c(OC)c1` (stereo not given), the T/C (dose: 1.3 mg/kg/injection, schedule: Q01DX009 (ip), vehicle: saline with Tween-80) is 169 % of control; the T/C (dose: 2.0 mg/kg/injection, schedule: Q01DX009 (ip), vehicle: saline with Tween-80) is 227 % of control; the T/C (dose: 3.0 mg/kg/injection, schedule: Q01DX009 (ip), vehicle: saline with Tween-80) is 220 % of control; the T/C (dose: 4.5 mg/kg/injection, schedule: Q01DX009 (ip), vehicle: saline with Tween-80) was 227 % of control.
For the molecule `O=C1C(N2CCCC2)=C(N2CC2)C(=O)C(N2CCCC2)=C1N1CC1`, where the note is “dose: 0.25 mg/kg/injection, schedule: Q01DX009 (ip), vehicle: saline”, the T/C was 172 % of control.
On to `O=C(O)CCC(=O)Nc1cccc(Oc2ccc([N+](=O)[O-])cc2[N+](=O)[O-])c1`, for which the T/C under setting [10] is 95 % of control; the T/C under setting [9] is 113 % of control; the T/C under setting [11] is 100 % of control; the T/C (dose: 400.0 mg/kg/injection, schedule: Q01DX009 (ip), vehicle: Klucel (hydroxypropylcellulose) (HPC)) is 109 % of control; the T/C under setting [12] is 100 % of control.
